The record followed here is article PMC8449129, “Single tracer-based protocol for broad-spectrum kinase profiling in live cells with NanoBRET” (STAR Protocols, 2021).

Assay in all cases: cell-based
What all share (set-up): NanoBRET live-cell target engagement; % occupancy from displacement of tracer K10 on NanoLuc-kinase fusions, mean n=3
Common to all, as to conditions: HEK293, read-out: % inhibition
In general terms: Bioluminescence resonance energy transfer reports proximity on the nanometre scale.

One experiment concerns the target BMP2K (Homo sapiens, UniProt Q9NSY1). In short, it runs like this:
(§1)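 Live-cell NanoBRET target engagement: cells expressing kinase–NanoLuc fusion with tracer treated with compound 2 h at 37 °C, 5% CO2. BRET read from donor (450 nm) and acceptor (610/630 nm) emission with 20 μM extracellular NanoLuc inhibitor; % occupancy calculated relative to tracer+DMSO and zero-BRET controls.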

Another experiment concerns the target BRAF(V600E) (Homo sapiens, UniProt P15056, V600E). In short, it runs like this: as §1
The target in a further experiment is CDK14 (Homo sapiens, UniProt O94921). In short, it runs like this: as §1
Sequence of CDK14 (O94921 whole entry): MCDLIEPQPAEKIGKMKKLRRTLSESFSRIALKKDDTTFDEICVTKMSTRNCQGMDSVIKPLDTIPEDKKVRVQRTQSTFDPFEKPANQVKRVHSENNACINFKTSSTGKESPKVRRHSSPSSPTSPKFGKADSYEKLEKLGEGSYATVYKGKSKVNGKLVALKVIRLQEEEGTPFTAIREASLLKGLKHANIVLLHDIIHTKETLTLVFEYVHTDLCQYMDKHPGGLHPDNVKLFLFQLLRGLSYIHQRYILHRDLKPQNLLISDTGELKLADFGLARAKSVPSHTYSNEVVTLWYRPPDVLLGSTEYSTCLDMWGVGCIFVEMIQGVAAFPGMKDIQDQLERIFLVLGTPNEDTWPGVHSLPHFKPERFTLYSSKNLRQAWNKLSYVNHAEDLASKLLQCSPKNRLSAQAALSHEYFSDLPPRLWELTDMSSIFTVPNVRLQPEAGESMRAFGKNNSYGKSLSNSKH
In the next experiment the target is CDK3 (Homo sapiens, UniProt Q00526). In short, it runs like this:
as §1

A further experiment deals with ERN1 (Homo sapiens, UniProt O75460). In short, it runs like this:
as §1

Another experiment addresses IKBKE (Homo sapiens, UniProt Q14164). In short, it runs like this: as §1
Another experiment addresses MAP3K2 (Homo sapiens, UniProt Q9Y2U5). In short, it runs like this: as §1
A further experiment addresses MARK2 (Homo sapiens, UniProt Q7KZI7). In short, it runs like this: as §1
In a further experiment the target is MYLK2 (Homo sapiens, UniProt Q9H1R3). In short, it runs like this:
as §1

The target of a further experiment is MYLK3 (Homo sapiens, UniProt Q32MK0). In short, it runs like this: as §1
Sequence of MYLK3 (Q32MK0 whole entry): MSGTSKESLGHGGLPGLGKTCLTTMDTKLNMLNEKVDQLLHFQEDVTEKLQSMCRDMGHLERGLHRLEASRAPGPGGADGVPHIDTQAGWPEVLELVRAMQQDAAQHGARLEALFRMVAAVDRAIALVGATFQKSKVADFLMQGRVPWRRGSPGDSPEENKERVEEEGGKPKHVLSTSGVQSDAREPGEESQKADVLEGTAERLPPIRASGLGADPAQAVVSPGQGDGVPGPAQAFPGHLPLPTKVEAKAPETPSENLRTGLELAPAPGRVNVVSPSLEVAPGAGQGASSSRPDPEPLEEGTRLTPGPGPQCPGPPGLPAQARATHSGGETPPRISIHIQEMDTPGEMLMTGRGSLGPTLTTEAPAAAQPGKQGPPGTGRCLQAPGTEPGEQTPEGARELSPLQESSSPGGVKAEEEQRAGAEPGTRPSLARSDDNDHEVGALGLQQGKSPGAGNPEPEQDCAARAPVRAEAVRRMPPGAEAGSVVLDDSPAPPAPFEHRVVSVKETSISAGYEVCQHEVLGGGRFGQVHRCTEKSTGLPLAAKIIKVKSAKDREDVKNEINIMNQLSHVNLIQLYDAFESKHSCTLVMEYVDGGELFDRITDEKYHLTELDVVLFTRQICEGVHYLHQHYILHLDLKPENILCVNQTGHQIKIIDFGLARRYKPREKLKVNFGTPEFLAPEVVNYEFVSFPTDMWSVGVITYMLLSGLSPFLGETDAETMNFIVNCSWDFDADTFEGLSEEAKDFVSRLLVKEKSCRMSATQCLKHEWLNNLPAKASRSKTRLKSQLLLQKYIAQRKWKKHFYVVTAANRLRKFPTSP
The target of a further experiment is NEK3 (Homo sapiens, UniProt P51956). In short, it runs like this: as §1
The target in the next experiment is NEK5 (Homo sapiens, UniProt Q6P3R8). In short, it runs like this:
as §1

Another experiment addresses RIOK2 (Homo sapiens, UniProt Q9BVS4). In short, it runs like this: as §1
The next experiment has as its target RPS6KA2 (Homo sapiens, UniProt Q15349). In short, it runs like this: as §1
The target of the next experiment is STK3 (Homo sapiens, UniProt Q13188). In short, it runs like this:
as §1

Another experiment deals with STK4 (Homo sapiens, UniProt Q13043). In short, it runs like this:
as §1

The next experiment has as its target ULK2 (Homo sapiens, UniProt Q8IYT8). In short, it runs like this:
as §1

The target in the next experiment is ULK3 (Homo sapiens, UniProt Q6PHR2). In short, it runs like this: as §1
Sequence of ULK3 (Q6PHR2 whole entry): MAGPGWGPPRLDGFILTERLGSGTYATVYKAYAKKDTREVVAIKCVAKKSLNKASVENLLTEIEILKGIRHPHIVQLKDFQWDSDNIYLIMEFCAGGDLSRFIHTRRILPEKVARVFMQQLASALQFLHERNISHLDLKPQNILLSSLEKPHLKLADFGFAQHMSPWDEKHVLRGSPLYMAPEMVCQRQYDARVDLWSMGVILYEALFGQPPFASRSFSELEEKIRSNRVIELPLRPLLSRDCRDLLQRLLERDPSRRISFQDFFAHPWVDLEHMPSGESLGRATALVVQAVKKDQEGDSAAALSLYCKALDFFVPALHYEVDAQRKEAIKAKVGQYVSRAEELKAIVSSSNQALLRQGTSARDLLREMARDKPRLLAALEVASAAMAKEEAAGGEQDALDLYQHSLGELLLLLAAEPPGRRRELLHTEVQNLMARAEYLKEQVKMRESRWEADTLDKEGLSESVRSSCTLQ

One may read the inhibition as the change of the read-out against control, counted positive when it falls.

Sequence of MAP3K2 (Q9Y2U5 whole entry): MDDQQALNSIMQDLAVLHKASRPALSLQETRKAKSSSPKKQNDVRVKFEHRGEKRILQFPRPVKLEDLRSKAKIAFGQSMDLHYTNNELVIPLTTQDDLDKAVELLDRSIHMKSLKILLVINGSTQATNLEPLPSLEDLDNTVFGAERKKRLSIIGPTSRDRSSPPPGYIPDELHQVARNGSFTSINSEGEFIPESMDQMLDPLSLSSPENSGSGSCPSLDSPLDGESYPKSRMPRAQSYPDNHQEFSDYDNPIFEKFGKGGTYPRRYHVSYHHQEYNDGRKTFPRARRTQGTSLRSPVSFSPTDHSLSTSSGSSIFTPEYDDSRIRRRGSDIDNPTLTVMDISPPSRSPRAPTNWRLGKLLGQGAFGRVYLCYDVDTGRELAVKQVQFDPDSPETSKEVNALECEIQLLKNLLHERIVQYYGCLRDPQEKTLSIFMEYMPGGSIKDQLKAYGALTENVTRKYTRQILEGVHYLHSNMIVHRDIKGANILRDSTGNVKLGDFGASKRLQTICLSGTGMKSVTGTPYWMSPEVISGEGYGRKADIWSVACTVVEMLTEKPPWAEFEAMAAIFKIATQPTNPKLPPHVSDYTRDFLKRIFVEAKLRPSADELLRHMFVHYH
Sequence of STK4 (Q13043 whole entry): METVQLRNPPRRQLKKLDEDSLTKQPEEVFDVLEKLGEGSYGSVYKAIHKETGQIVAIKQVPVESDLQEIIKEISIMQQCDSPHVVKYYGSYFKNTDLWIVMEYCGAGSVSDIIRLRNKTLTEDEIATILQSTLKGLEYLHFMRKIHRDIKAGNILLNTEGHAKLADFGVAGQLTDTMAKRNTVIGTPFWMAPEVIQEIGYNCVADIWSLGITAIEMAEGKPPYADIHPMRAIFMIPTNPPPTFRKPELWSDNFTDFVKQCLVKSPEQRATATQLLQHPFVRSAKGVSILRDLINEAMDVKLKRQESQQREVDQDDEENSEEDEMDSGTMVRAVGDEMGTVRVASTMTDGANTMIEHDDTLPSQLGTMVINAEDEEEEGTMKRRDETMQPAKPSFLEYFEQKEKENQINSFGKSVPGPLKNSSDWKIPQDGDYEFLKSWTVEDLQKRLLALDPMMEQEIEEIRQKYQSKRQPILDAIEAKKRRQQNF
Sequence of CDK3 (Q00526 whole entry): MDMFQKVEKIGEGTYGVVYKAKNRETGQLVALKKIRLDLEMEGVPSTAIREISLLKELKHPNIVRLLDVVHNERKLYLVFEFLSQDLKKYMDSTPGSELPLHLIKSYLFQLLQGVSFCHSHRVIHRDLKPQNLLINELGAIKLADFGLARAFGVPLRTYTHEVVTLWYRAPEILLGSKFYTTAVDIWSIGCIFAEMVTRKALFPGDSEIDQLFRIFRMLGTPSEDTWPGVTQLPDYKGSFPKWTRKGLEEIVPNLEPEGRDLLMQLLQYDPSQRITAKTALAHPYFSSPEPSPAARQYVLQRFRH
Sequence of BMP2K (Q9NSY1 whole entry, the tested form may be a part): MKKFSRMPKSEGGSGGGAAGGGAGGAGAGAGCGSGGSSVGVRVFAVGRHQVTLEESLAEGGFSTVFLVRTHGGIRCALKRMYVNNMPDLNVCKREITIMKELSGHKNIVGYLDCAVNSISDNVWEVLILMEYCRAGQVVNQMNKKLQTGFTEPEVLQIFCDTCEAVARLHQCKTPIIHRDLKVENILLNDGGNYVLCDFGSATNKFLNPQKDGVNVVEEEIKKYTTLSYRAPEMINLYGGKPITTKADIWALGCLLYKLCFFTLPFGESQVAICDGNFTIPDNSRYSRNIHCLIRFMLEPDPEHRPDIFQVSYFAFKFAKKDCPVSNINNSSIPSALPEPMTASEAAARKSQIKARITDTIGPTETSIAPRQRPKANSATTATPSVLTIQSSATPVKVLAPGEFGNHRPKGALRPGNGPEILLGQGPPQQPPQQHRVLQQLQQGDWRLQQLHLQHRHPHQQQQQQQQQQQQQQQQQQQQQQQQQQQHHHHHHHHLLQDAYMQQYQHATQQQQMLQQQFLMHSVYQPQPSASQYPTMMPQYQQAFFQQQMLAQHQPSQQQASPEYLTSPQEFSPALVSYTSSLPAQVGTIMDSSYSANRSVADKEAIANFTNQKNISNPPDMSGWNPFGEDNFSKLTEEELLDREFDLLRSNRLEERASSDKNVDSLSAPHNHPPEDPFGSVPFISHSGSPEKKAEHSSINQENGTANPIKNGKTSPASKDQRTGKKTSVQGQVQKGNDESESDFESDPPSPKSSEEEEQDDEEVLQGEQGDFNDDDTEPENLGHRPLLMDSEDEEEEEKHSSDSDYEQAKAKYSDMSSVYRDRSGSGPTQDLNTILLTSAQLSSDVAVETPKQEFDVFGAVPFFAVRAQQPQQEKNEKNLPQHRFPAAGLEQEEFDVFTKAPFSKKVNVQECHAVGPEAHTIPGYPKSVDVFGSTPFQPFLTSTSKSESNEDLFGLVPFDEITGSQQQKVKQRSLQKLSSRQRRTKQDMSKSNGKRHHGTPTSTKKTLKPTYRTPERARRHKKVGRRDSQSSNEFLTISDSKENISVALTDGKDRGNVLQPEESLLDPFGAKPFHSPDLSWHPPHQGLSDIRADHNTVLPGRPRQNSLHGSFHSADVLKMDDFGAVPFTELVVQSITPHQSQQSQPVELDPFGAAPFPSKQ
Sequence of IKBKE (Q14164 whole entry): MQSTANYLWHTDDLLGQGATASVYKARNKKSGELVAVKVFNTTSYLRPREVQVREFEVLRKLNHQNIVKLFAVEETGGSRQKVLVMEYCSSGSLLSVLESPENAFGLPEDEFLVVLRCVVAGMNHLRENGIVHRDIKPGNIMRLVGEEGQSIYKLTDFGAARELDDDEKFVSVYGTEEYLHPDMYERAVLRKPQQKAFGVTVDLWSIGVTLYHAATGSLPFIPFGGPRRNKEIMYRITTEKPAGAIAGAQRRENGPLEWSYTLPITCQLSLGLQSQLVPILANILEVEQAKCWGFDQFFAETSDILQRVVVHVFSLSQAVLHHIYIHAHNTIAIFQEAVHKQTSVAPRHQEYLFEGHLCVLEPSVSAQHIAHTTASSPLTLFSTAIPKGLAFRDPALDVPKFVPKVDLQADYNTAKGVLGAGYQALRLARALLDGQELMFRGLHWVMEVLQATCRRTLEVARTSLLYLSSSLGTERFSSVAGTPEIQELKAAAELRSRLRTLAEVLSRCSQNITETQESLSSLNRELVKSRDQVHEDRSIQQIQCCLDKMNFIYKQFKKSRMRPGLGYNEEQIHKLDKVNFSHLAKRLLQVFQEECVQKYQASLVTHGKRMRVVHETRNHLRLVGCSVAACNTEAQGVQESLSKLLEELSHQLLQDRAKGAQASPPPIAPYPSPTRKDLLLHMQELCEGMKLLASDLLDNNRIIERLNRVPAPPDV

Consider `C[C@@H](Oc1cc(-c2cnn(C3CCNCC3)c2)cnc1N)c1c(Cl)ccc(F)c1Cl` [crizotinib], for which the inhibition at 1 µM is 11% at BMP2K; -4% on BRAF(V600E); 0% at CDK14; 6% on CDK3; -3% at ERN1; 21% at IKBKE. In addition, the inhibition at 1 µM on MAP3K2 was 6%; on MARK2, 4%; on MYLK2, -16%; at MYLK3, -8%; on NEK3, -2%; at NEK5 it was -6%. The inhibition at 1 µM is 9% at RIOK2; -7% on RPS6KA2; 1% at STK3; 11% on STK4; -1% on ULK2; 2% at ULK3.
